Test results reported in US20090123397A1, “Microbiocidal compositions” (Thor Specialities (UK) Limited, priority 2005, published 2009).

Key:
Pseudomonas aeruginosa [1] = assay: Efficacy of C5 alkane diols vs. C8 alkane diols; type: cell-based; design: key: + = no growth inhibition; − = growth inhibition
Experimental: (§1) Tables VIIIA to VIIID—Efficacy of C5 alkane diols vs. C8 alkane diols. […] Tables VIIIA to VIIID above illustrate the results of tests of the efficacy of octane diol compared to pentane diol on various organisms. These tests were carried out in a similar manner to those described above. The percentages at the top line of each table indicate the amount of diol used by weight in the preservative mixture.

Staphylococcus aureus [2] = assay: Efficacy of C5 alkane diols vs. C8 alkane diols; type: cell-based; design: key: + = no growth inhibition; − = growth inhibition
Experimental: as §1

Candida albicans [3] = assay: Efficacy of C5 alkane diols vs. C8 alkane diols; type: cell-based; design: key: + = no growth inhibition; − = growth inhibition
Experimental: as §1

Aspergillus Niger [4] = assay: Efficacy of C5 alkane diols vs. C8 alkane diols; type: cell-based; design: key: + = no growth inhibition; − = growth inhibition
Experimental: as §1

Staphylococcus aureus [5] = assay: MIC / growth test of MIT and CAG mixtures in Müller-Hinton broth; type: cell-based, Staphylococcus aureus ATCC 6538; design: key to growth of the micro-organism: growth of the micro-organism took place (symbol “+”); or not (symbol “−”); settings: 72 h
Experimental: (§2) For this purpose, aqueous mixtures were produced with various concentrations of 2-methylisothiazolin-3-one (MIT) and caprylyl glycol (CAG) and the activity of these mixtures were tested on the micro-organisms listed in Table VI.
(§3) In addition to the active component(s) and water, the aqueous mixtures contained a nutrient medium, namely a Müller-Hinton broth (Manufacturer: Oxoid; product code CM405). The incubation time was 72 h at 25° C. (bacterial and yeast) or 7 days at 25° C. (mould). Each sample was incubated on an incubation shaker at 105 rpm.
(§4) The tables also show whether growth of the micro-organism took place (symbol “+”) or not (symbol “−”).
(§5) Tables I to V also show the minimum inhibition concentrations (MIC).
(§6) The synergy index is calculated according to the method of F. C. Kull et al., Applied Microbiology, Vol. 9 (1961), p. 538. Here the synergy index is calculated using the following formula:
(§7) Synergy index=Qa/QA+Qb/QB
(§8) When this formula is used on the biocide system tested here, the quantities in the formula have the following meaning: • Qa=MIC of MIT in the preservative mixture of MIT and CAG • QA=MIC of MIT as sole ingredient • Qb=MIC of CAG in the preservative mixture of MIT and CAG • QB=MIC of CAG as sole ingredient
(§9) When the synergy index has the value 1, this means that there is an addition of the activity of the two ingredients. When the synergy index has a value of less than 1, this means that a synergy of the two ingredients exists.

Candida albicans [6] = assay: as above; type: cell-based, Candida albicans NCPF 3179; design: key to growth of the micro-organism: growth of the micro-organism took place (symbol “+”); or not (symbol “−”); settings: 72 h
Experimental: as §2, §3, §4, §5, §6, §7, §8, §9

Pseudomonas aeruginosa [7] = assay: as above; type: cell-based, Pseudomonas aeruginosa ATCC 9027; design: key to growth of the micro-organism: growth of the micro-organism took place (symbol “+”); or not (symbol “−”); settings: 72 h
Experimental: as §2, §3, §4, §5, §6, §7, §8, §9

Aspergillus niger [8] = assay: as above; type: cell-based, Aspergillus niger IMI 149007; design: key to growth of the micro-organism: growth of the micro-organism took place (symbol “+”); or not (symbol “−”); settings: 5 days
Experimental: as §2
In addition to the active component(s) and water, the aqueous mixtures contained a nutrient medium, namely a Müller-Hinton broth (Manufacturer: Oxoid; product code CM405). […] (mould). Each sample was incubated on an incubation shaker at 105 rpm.
as §4, §5, §6, §7, §8, §9

Enterococcus faecalis = assay: as above; type: cell-based, Enterococcus faecalis NCIMB 12756; design: key to growth of the micro-organism: growth of the micro-organism took place (symbol “+”); or not (symbol “−”); settings: 72 h
Experimental: as §2, §3, §4, §5, §6, §7, §8, §9

CCCC(O)CO (stereo not drawn) [1,2 Pentane diol, reference compound]
growth inhibition (Pseudomonas aeruginosa [1]; diol 0.2% by weight): + | growth inhibition (Pseudomonas aeruginosa [1]; diol 0.4% by weight): + | growth inhibition (Pseudomonas aeruginosa [1]; diol 0.6% by weight): + | growth inhibition (Pseudomonas aeruginosa [1]; diol 0.8% by weight): + | growth inhibition (Pseudomonas aeruginosa [1]; diol 1.0% by weight): + | growth inhibition (Staphylococcus aureus [2]; diol 0.2% by weight): + | growth inhibition (Staphylococcus aureus [2]; diol 0.4% by weight): + | growth inhibition (Staphylococcus aureus [2]; diol 0.6% by weight): + | growth inhibition (Staphylococcus aureus [2]; diol 0.8% by weight): + | growth inhibition (Staphylococcus aureus [2]; diol 1.0% by weight): + | growth inhibition (Candida albicans [3]; diol 0.2% by weight): + | growth inhibition (Candida albicans [3]; diol 0.4% by weight): + | growth inhibition (Candida albicans [3]; diol 0.6% by weight): + | growth inhibition (Candida albicans [3]; diol 0.8% by weight): + | growth inhibition (Candida albicans [3]; diol 1.0% by weight): + | growth inhibition (Aspergillus Niger [4]; diol 0.2% by weight): + | growth inhibition (Aspergillus Niger [4]; diol 0.4% by weight): + | growth inhibition (Aspergillus Niger [4]; diol 0.6% by weight): + | growth inhibition (Aspergillus Niger [4]; diol 0.8% by weight): + | growth inhibition (Aspergillus Niger [4]; diol 1.0% by weight): +

CCCCCCC(O)CO (stereo not drawn) [1,2-Octane diol]
growth inhibition (Pseudomonas aeruginosa [1]; diol 0.2% by weight): + | growth inhibition (Pseudomonas aeruginosa [1]; diol 0.4% by weight): − | growth inhibition (Pseudomonas aeruginosa [1]; diol 0.6% by weight): − | growth inhibition (Pseudomonas aeruginosa [1]; diol 0.8% by weight): − | growth inhibition (Pseudomonas aeruginosa [1]; diol 1.0% by weight): − | growth inhibition (Staphylococcus aureus [2]; diol 0.2% by weight): − | growth inhibition (Staphylococcus aureus [2]; diol 0.4% by weight): − | growth inhibition (Staphylococcus aureus [2]; diol 0.6% by weight): − | growth inhibition (Staphylococcus aureus [2]; diol 0.8% by weight): − | growth inhibition (Staphylococcus aureus [2]; diol 1.0% by weight): − | growth inhibition (Candida albicans [3]; diol 0.2% by weight): + | growth inhibition (Candida albicans [3]; diol 0.4% by weight): − | growth inhibition (Candida albicans [3]; diol 0.6% by weight): − | growth inhibition (Candida albicans [3]; diol 0.8% by weight): − | growth inhibition (Candida albicans [3]; diol 1.0% by weight): − | growth inhibition (Aspergillus Niger [4]; diol 0.2% by weight): − | growth inhibition (Aspergillus Niger [4]; diol 0.4% by weight): − | growth inhibition (Aspergillus Niger [4]; diol 0.6% by weight): − | growth inhibition (Aspergillus Niger [4]; diol 0.8% by weight): − | growth inhibition (Aspergillus Niger [4]; diol 1.0% by weight): −

CCCCCCC(O)CO (stereo not drawn) [CAG, caprylyl glycol]
QB (CAG): MIC of CAG as sole ingredient (Staphylococcus aureus [5]): 1000 ppm | growth of the micro-organism (Staphylococcus aureus [5]; MIT 0 ppm, CAG 500 ppm): + | growth of the micro-organism (Staphylococcus aureus [5]; MIT 0 ppm, CAG 1000 ppm): − | growth of the micro-organism (Staphylococcus aureus [5]; MIT 0 ppm, CAG 2000 ppm): − | growth of the micro-organism (Staphylococcus aureus [5]; MIT 0 ppm, CAG 3000 ppm): − | growth of the micro-organism (Staphylococcus aureus [5]; MIT 0 ppm, CAG 4000 ppm): − | QB (CAG): MIC of CAG as sole ingredient (Candida albicans [6]): 3000 ppm | growth of the micro-organism (Candida albicans [6]; MIT 0 ppm, CAG 500 ppm): + | growth of the micro-organism (Candida albicans [6]; MIT 0 ppm, CAG 1000 ppm): + | growth of the micro-organism (Candida albicans [6]; MIT 0 ppm, CAG 2000 ppm): + | growth of the micro-organism (Candida albicans [6]; MIT 0 ppm, CAG 3000 ppm): − | growth of the micro-organism (Candida albicans [6]; MIT 0 ppm, CAG 4000 ppm): − | QB (CAG): MIC of CAG as sole ingredient (Pseudomonas aeruginosa [7]): 4000 ppm | growth of the micro-organism (Pseudomonas aeruginosa [7]; MIT 0 ppm, CAG 500 ppm): + | growth of the micro-organism (Pseudomonas aeruginosa [7]; MIT 0 ppm, CAG 1000 ppm): + | growth of the micro-organism (Pseudomonas aeruginosa [7]; MIT 0 ppm, CAG 2000 ppm): + | growth of the micro-organism (Pseudomonas aeruginosa [7]; MIT 0 ppm, CAG 3000 ppm): + | growth of the micro-organism (Pseudomonas aeruginosa [7]; MIT 0 ppm, CAG 4000 ppm): − | QB (CAG): MIC of CAG as sole ingredient (Aspergillus niger [8]): 2000 ppm | growth of the micro-organism (Aspergillus niger [8]; MIT 0 ppm, CAG 500 ppm): + | growth of the micro-organism (Aspergillus niger [8]; MIT 0 ppm, CAG 1000 ppm): + | growth of the micro-organism (Aspergillus niger [8]; MIT 0 ppm, CAG 2000 ppm): − | growth of the micro-organism (Aspergillus niger [8]; MIT 0 ppm, CAG 3000 ppm): − | growth of the micro-organism (Aspergillus niger [8]; MIT 0 ppm, CAG 4000 ppm): − | QB (CAG): MIC of CAG as sole ingredient (Enterococcus faecalis): 2000 ppm | growth of the micro-organism (Enterococcus faecalis; MIT 0 ppm, CAG 500 ppm): + | growth of the micro-organism (Enterococcus faecalis; MIT 0 ppm, CAG 1000 ppm): + | growth of the micro-organism (Enterococcus faecalis; MIT 0 ppm, CAG 2000 ppm): − | growth of the micro-organism (Enterococcus faecalis; MIT 0 ppm, CAG 3000 ppm): − | growth of the micro-organism (Enterococcus faecalis; MIT 0 ppm, CAG 4000 ppm): −

Cn1sccc1=O [MIT, 2-methylisothiazolin-3-one]
QA (MIT): MIC of MIT as sole ingredient (Staphylococcus aureus [5]): 25 ppm | growth of the micro-organism (Staphylococcus aureus [5]; MIT 10 ppm, CAG 0 ppm): + | growth of the micro-organism (Staphylococcus aureus [5]; MIT 25 ppm, CAG 0 ppm): − | growth of the micro-organism (Staphylococcus aureus [5]; MIT 37.5 ppm, CAG 0 ppm): − | growth of the micro-organism (Staphylococcus aureus [5]; MIT 50 ppm, CAG 0 ppm): − | growth of the micro-organism (Staphylococcus aureus [5]; MIT 75 ppm, CAG 0 ppm): − | QA (MIT): MIC of MIT as sole ingredient (Candida albicans [6]): 200 ppm | growth of the micro-organism (Candida albicans [6]; MIT 10 ppm, CAG 0 ppm): + | growth of the micro-organism (Candida albicans [6]; MIT 25 ppm, CAG 0 ppm): + | growth of the micro-organism (Candida albicans [6]; MIT 37.5 ppm, CAG 0 ppm): + | growth of the micro-organism (Candida albicans [6]; MIT 50 ppm, CAG 0 ppm): + | growth of the micro-organism (Candida albicans [6]; MIT 75 ppm, CAG 0 ppm): + | growth of the micro-organism (Candida albicans [6]; MIT 100 ppm, CAG 0 ppm): + | growth of the micro-organism (Candida albicans [6]; MIT 200 ppm, CAG 0 ppm): − | QA (MIT): MIC of MIT as sole ingredient (Pseudomonas aeruginosa [7]): 25 ppm | growth of the micro-organism (Pseudomonas aeruginosa [7]; MIT 10 ppm, CAG 0 ppm): + | growth of the micro-organism (Pseudomonas aeruginosa [7]; MIT 25 ppm, CAG 0 ppm): − | growth of the micro-organism (Pseudomonas aeruginosa [7]; MIT 37.5 ppm, CAG 0 ppm): − | growth of the micro-organism (Pseudomonas aeruginosa [7]; MIT 50 ppm, CAG 0 ppm): − | growth of the micro-organism (Pseudomonas aeruginosa [7]; MIT 75 ppm, CAG 0 ppm): − | QA (MIT): MIC of MIT as sole ingredient (Aspergillus niger [8]): 300 ppm | growth of the micro-organism (Aspergillus niger [8]; MIT 10 ppm, CAG 0 ppm): + | growth of the micro-organism (Aspergillus niger [8]; MIT 25 ppm, CAG 0 ppm): + | growth of the micro-organism (Aspergillus niger [8]; MIT 37.5 ppm, CAG 0 ppm): + | growth of the micro-organism (Aspergillus niger [8]; MIT 50 ppm, CAG 0 ppm): + | growth of the micro-organism (Aspergillus niger [8]; MIT 75 ppm, CAG 0 ppm): + | growth of the micro-organism (Aspergillus niger [8]; MIT 100 ppm, CAG 0 ppm): + | growth of the micro-organism (Aspergillus niger [8]; MIT 200 ppm, CAG 0 ppm): + | growth of the micro-organism (Aspergillus niger [8]; MIT 300 ppm, CAG 0 ppm): − | QA (MIT): MIC of MIT as sole ingredient (Enterococcus faecalis): 75 ppm | growth of the micro-organism (Enterococcus faecalis; MIT 10 ppm, CAG 0 ppm): + | growth of the micro-organism (Enterococcus faecalis; MIT 25 ppm, CAG 0 ppm): + | growth of the micro-organism (Enterococcus faecalis; MIT 37.5 ppm, CAG 0 ppm): + | growth of the micro-organism (Enterococcus faecalis; MIT 50 ppm, CAG 0 ppm): + | growth of the micro-organism (Enterococcus faecalis; MIT 75 ppm, CAG 0 ppm): −
